Results: patent US20240247031A1, “COMPOSITION FOR TREATING CANCER CONTAINING TELOMERASE-TARGETING GNRH ANTAGONIST-DERIVED PEPTIDE HS1002” (Research & Business Foundation Sungkyunkwan University, priority 2023, published 2024)

What was measured:
[1] = test system: BAX, C-PARP, Bcl-2 in LNCaP; test: Western blot of proteins involved in apoptosis (FIG. 9); assay type: cell-based, human; details: different concentrations, 48 h
Method: The prostate cancer cell line (LNCaP) was seeded into six-well plates and then incubated in an incubator for one day. The peptides were diluted in fresh media and then used to treat the cells. After 48 h, the media were removed, the plates were washed twice with DPBS, and 1 mL of trypsin was placed in each well to separate the cells, and 5 mL of media were added to each well to dilute the trypsin, followed by centrifugation at 1000 rpm for 5 min, thereby preparing the cells. Thereafter, proteins were extracted using a Pro-prep protein extraction kit, separated by electrophoresis, and blotted onto a membrane. The membrane was blocked by a Blotting-Grade Blocker at room temperature for 1 hour, and then primary antibodies (1000:1) were added, followed by incubation at 4° C. for one day. Thereafter, the membrane was repeatedly washed with 1×TBST (Tris 25 g, NaCl 120 g in D.W.+[…] 0.1%) every 10 min for 1 h. Then, secondary antibodies (10000:1) were added, followed by incubation at room temperature for 1 h, and then the membrane was repeatedly washed with 1×TBST every 10 min for 1 h. After incubation with […] substrates for 5 min, desired protein bands were identified using a Chemi-doc system.

[2] = test system: c-Myc; test: c-Myc protein expression and transcriptional activity in LNCaP (FIG. 12); assay type: cell-based, human; details: 300 μM, 72 h
Method: (§1) The cells and tumor tissues were homogenized using the PRO-PREP™ extraction solution (iNtRON Biotechnology, Seongnam, Korea). After incubation, the homogenate was centrifuged at 16,000×g for 20 min at 4° C., and the supernatant was collected for western blot analysis. Subsequently, an equivalent quantity of protein was separated using sodium dodecyl sulfate polyacrylamide gels and transferred onto a polyvinylidene difluoride (PVDF) membrane. The PVDF membranes were incubated with the primary antibodies overnight at 4° C., washed with tris-buffered saline, and then incubated with HRP-conjugated anti-mouse or anti-rabbit antibodies. The bands were visualized using a ChemiDoc imaging system (Bio-Rad, Hercules, CA, USA). The band intensities were determined using an Image J software.
The c-Myc Transcription Factor Assay Kit (Cat. ab207200, abcam) was used to quantify the activation of c-Myc in nuclear extracts after peptide treatment. […] The protein concentration was quantified using the Bradford method (798 μL Bradford, 200 μL water, and 2 μL of the protein) at a wavelength of 595 nm (SmartSpecPlus; BioRad). For the detection of c-Myc transcriptional activity, 5 μg of the isolated nuclear extracts were used, and the absorbance was measured on a spectrophotometer (Synergy HT; BioTek) at OD 450 nm. […]

[3] = test system: AKT, ERK1/2, and mTOR pathways; test: Western blot of hTERT-regulating signaling proteins in LNCaP (FIG. 13); assay type: cell-based, human; details: LNCaP cells
Method: as §1
Furthermore, a western blot analysis assessed the expression levels of signaling pathway proteins that regulate hTERT in LNCaP cells treated with HS1002. […] In addition, the expression of AKT, ERK1/2, and mTOR was unchanged in both the control and HS1002 groups (FIG. 13).

[4] = test system: MC38 tumor; test: MC38 syngeneic mouse tumor model (FIG. 19); assay type: in vivo; details: 1 mg/kg s.c. every day
Method: All mice were purchased from Central Lab Animal Inc. ([…]). They were raised in a 12 h environmental light/dark cycle with controlled temperature (22±2° C.) conditions. The experimental protocol was approved by the Sungkyunkwan University Institutional Animal Care and Use Committee (SKKUIACUC2021-06-27-1, SKKUIACUC2023-01-07-1). For the establishment of tumors, LNCaP (1×10^7), MC38 (2×10^5), and 4T1 (1×10^6) suspended in serum-free media containing 50% Matrigel was subcutaneously administered in the right flank of mice, respectively. The tumor volumes (V) were calculated using a caliper and the standard equation: V (mm^3)=0.52 (ab^2) (a=length, b=width). Once the tumor reached 100-200 mm^3, the mice were randomly divided into different groups and subcutaneously injected with a vehicle or each peptide every day.
The sequences of the TERT peptide are highly conserved in human and mouse, indicating its potential translatability to mouse cancer. […] Hot tumors are generally more responsive to immunotherapy. In contrast, ‘Cold’ tumors such as the 4T1 tumor model lack infiltrating T cells and often have a low tumor mutational burden. Without a pre-existing adaptive immune response, cold tumors are insensitive to immunotherapy. […]

Structure (SMILES): CCNC(=O)[C@@H]1CCCN1C(=O)[C@@H](NC(=O)[C@H](Cc1ccccc1)NC(=O)[C@H](CCCNC(=N)N)NC(=O)[C@H](CC(C)C)NC(=O)[C@H](CCCNC(=N)N)NC(=O)[C@H](Cc1ccc(O)cc1)NC(=O)[C@H](CO)NC(=O)[C@H](Cc1c[nH]c2ccccc12)NC(=O)[C@H](Cc1c[nH]cn1)NC(=O)[C@@H]1CCC(=O)N1)[C@@H](C)CC [HS1002]
- expression level of BAX [1]: increased
- expression level of Bcl-2 [1]: decreased
- expression level of C-PARP [1]: increased
- c-Myc protein expression [2]: significantly decreased
- c-Myc transcriptional activity [2]: significantly decreased
- expression of p-AKT [3]: significantly downregulated
- expression of p-ERK1/2 [3]: significantly downregulated
- expression of p-mTOR [3]: significantly downregulated
- expression of AKT, ERK1/2, and mTOR ([3]; total proteins): unchanged
- tumor volume [4]: diminished
- tumor weight [4]: diminished
